These results are taken from US9096624B2 (OSI Pharmaceuticals, LLC, priority 2009, dated 2015).

Test [1] addresses T1, FAK (Homo sapiens, UniProt Q05397). The test is described as follows: Cell-based capture ELISA for inhibition of FAK autophosphorylation [pY397] in MiaPaCa2 cells. The note with it: MIA-PaCa2 cells, + 50% mouse plasma (Table 3); read-out: Mean FAK Cell Mechanistic IC50 + 50% mP MIA-PaCa2. On the procedure:
Cell-Based Assays for Inhibition of FAK Autophosphorylation: MiaPaCa2 and U87MG
ELISA kit from Invitrogen (KHO0441).
Reagents Provided in Biosource FAK [pY397]
The cells were then suspended in cell assay medium.
(In general: An ELISA detects its analyte on a solid surface through an enzyme-linked reagent.)

For test [2], the target named is T1, FAK. Nature of the test: biochemical.

T1 sequence (Q05397 whole entry): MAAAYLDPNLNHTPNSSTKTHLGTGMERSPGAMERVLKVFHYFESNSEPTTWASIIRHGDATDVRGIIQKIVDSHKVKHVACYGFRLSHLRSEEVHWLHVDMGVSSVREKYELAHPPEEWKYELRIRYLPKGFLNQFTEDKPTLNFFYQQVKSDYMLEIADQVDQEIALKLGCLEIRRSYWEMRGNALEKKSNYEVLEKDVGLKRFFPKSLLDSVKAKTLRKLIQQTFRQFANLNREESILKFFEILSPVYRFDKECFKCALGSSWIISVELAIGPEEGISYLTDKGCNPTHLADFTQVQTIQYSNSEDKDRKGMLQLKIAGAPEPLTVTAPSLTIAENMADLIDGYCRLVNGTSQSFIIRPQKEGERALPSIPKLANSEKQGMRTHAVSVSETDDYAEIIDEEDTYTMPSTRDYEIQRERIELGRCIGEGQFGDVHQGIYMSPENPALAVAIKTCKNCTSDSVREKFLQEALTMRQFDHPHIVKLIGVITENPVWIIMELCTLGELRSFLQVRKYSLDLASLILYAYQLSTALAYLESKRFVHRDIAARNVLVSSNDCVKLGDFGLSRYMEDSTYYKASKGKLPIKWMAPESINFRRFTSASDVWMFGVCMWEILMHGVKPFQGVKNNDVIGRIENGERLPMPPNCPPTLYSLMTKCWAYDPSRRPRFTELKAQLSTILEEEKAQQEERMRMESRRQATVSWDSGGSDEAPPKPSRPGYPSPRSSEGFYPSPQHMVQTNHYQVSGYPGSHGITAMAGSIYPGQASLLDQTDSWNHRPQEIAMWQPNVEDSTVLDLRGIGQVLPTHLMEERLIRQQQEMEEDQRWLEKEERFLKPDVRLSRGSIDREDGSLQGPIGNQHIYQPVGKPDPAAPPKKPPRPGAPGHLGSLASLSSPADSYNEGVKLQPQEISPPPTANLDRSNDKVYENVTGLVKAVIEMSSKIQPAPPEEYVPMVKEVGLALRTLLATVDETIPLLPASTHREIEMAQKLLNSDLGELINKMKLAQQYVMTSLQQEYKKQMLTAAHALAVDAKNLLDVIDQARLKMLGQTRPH

In the case of `CCOP(=O)(Cc1ccc(Nc2ncc(C(F)(F)F)c(Nc3ccc(CN4CCCC4)c4c3C(=O)N(C)C4)n2)c(OC)c1)OCC` [Example 110, Diethyl (3-methoxy-4-{[4-{[2-methyl-3-oxo-7-(pyrrolidin-1-ylmethyl)-2,3-dihydro-1H-isoindol-4-yl]amino}-5-(trifluoromethyl)pyrimidin-2-yl]amino}benzyl)phosphonate], the IC50 on FAK [1] and against FAK [2] was under 1000 nM throughout.

As for `CNC(=O)c1ccccc1Nc1nc(Nc2ccc(CP(=O)(OCCO)OCCO)cc2OC)ncc1C(F)(F)F` [Example 113, Bis(2-hydroxyethyl)(3-methoxy-4-{[4-{[2-(methylcarbamoyl)phenyl]amino}-5-(trifluoromethyl)pyrimidin-2-yl]amino}benzyl)phosphonate], the IC50 on FAK [1] and against FAK [2] was under 1000 nM each time.

As to `CNC(=O)c1ccccc1Nc1nc(Nc2ccc(CP(=O)(OCC(F)(F)F)OCC(F)(F)F)cc2OC)ncc1C(F)(F)F` [Example 114, Bis(2,2,2-trifluoroethyl)(3-methoxy-4-{[4-{[2-(methylcarbamoyl)phenyl]amino}-5-(trifluoromethyl)pyrimidin-2-yl]amino}benzyl)phosphonate], the IC50 on FAK [1] and on FAK [2] was under 1000 nM each time.

In the case of `CCOP(=O)(OCC)C(OCC(F)(F)F)c1ccc(Nc2ncc(C(F)(F)F)c(Nc3ccccc3C(=O)NC)n2)cc1` (centres unmarked) [Example 115, Diethyl [(4-{[4-{[2-(methylcarbamoyl)phenyl]amino}-5-(trifluoromethyl)pyrimidin-2-yl]amino}phenyl)(2,2,2-trifluoroethoxy)methyl]phosphonate], the IC50 (in general, the concentration that inhibits the measured activity by half) at FAK [1] was 1000 to 10000 nM; on FAK [2], under 1000 nM.

As to `CCOP(=O)(Cc1ccc(Nc2ncc(C(F)(F)F)c(Nc3ccc(C(=O)N4CCCC4)c4c3C(=O)N(C)C4)n2)cc1)OCC` [Example 116, Diethyl (4-{[4-{[2-methyl-3-oxo-7-(pyrrolidin-1-ylcarbonyl)-2,3-dihydro-1H-isoindol-4-yl]amino}-5-(trifluoromethyl)pyrimidin-2-yl]amino}benzyl)phosphonate], the IC50 is 1000 to 10000 nM at FAK [1] and under 1000 nM against FAK [2].

Consider `CCOP(=O)(Cc1ccc(Nc2ncc(C(F)(F)F)c(Nc3ccc(C(=O)N4CCCC4)c4c3C(=O)N(C)C4)n2)c(OC)c1)OCC` [Example 117, Diethyl (3-methoxy-4-{[4-{[2-methyl-3-oxo-7-(pyrrolidin-1-ylcarbonyl)-2,3-dihydro-1H-isoindol-4-yl]amino}-5-(trifluoromethyl)pyrimidin-2-yl]amino}benzyl)phosphonate], for which the IC50 on FAK [1] and against FAK [2] was under 1000 nM in each case.

For `CCOP(=O)(Cc1ccc(Nc2ncc(C(F)(F)F)c(Nc3ccc(C(=O)OC)c4c3C(=O)N(C)C4)n2)c(OC)c1)OCC` [Example 119, Methyl 7-{[2-({4-[(diethoxyphosphoryl)methyl]-2-methoxyphenyl}amino)-5-(trifluoromethyl)pyrimidin-4-yl]amino}-2-methyl-1-oxo-2,3-dihydro-1H-isoindole-4-carboxylate], the IC50 at FAK [1] and against FAK [2] was under 1000 nM throughout.

In the case of `COc1cc(CP(=O)(OCC(F)(F)F)OCC(F)(F)F)ccc1Nc1ncc(C(F)(F)F)c(Nc2cccc3c2C(=O)N(C)C3)n1` [Example 124, Bis(2,2,2-trifluoroethyl) [3-methoxy-4-({4-[(2-methyl-3-oxo-2,3-dihydro-1H-isoindol-4-yl)amino]-5-(trifluoromethyl)pyrimidin-2-yl}amino)benzyl]phosphonate], the IC50 at FAK [1] and against FAK [2] was under 1000 nM in each case.

Consider `CCOP(=O)(Cc1ccc(Nc2ncc(C(F)(F)F)c(Nc3ccc(-c4cnn(C)c4)cc3C(=O)NC)n2)cc1)OCC` [Example 125, Diethyl (4-{[4-{[2-(methylcarbamoyl)-4-(1-methyl-1H-pyrazol-4-yl)phenyl]amino}-5-(trifluoromethyl)pyrimidin-2-yl]amino}benzyl)phosphonate], for which the IC50 at FAK [1] and at FAK [2] was under 1000 nM each time.

As for `CCOP(=O)(Cc1ccc(Nc2ncc(C(F)(F)F)c(Nc3ccc(C(=O)O)c4c3C(=O)N(C)C4)n2)cc1)OCC` [Example 128, 7-{[2-({4-[(Diethoxyphosphoryl)methyl]phenyl}amino)-5-(trifluoromethyl)pyrimidin-4-yl]amino}-2-methyl-1-oxo-2,3-dihydro-1H-isoindole-4-carboxylic acid], the IC50 is 1000 to 10000 nM at FAK [1] and under 1000 nM on FAK [2].

Turning to `CCOP(=O)(Cc1ccc(Nc2ncc(C(F)(F)F)c(Nc3ccc(C(=O)O)c4c3C(=O)N(C)C4)n2)c(OC)c1)OCC` [Example 129, 7-{[2-({4-[(Diethoxyphosphoryl)methyl]-2-methoxyphenyl}amino)-5-(trifluoromethyl)pyrimidin-4-yl]amino}-2-methyl-1-oxo-2,3-dihydro-1H-isoindole-4-carboxylic acid], the IC50 is 1000 to 10000 nM at FAK [1] and under 1000 nM against FAK [2].

For the molecule `CCOP(=O)(Cc1ccc(Nc2ncc(C(F)(F)F)c(Nc3cccc4ccn(C)c(=O)c34)n2)cc1)OCC` [Example 131, Diethyl [4-({4-[(2-methyl-1-oxo-1,2-dihydroisoquinolin-8-yl)amino]-5-(trifluoromethyl)pyrimidin-2-yl}amino)benzyl]phosphonate], the IC50 on FAK [1] and at FAK [2] was under 1000 nM throughout.

`CCOP(=O)(Cc1ccc(Nc2ncc(C(F)(F)F)c(Nc3cccc4c3C(=O)N(C)CC4)n2)cc1)OCC` [Example 132, Diethyl [4-({4-[(2-methyl-1-oxo-1,2,3,4-tetrahydroisoquinolin-8-yl)amino]-5-(trifluoromethyl)pyrimidin-2-yl}amino)benzyl]phosphonate]: the IC50 at FAK [1] and at FAK [2] was under 1000 nM each time.

Regarding `CCOP(=O)(Cc1ccc(Nc2ncc(C(F)(F)F)c(Nc3ccc(-c4cnn([C@H]5CC[C@H](O)CC5)c4)cc3C(=O)NC)n2)cc1)OCC` [Example 137, Diethyl (4-{[4-({4-[1-(trans-4-hydroxycyclohexyl)-1H-pyrazol-4-yl]-2-(methylcarbamoyl)phenyl}amino)-5-(trifluoromethyl)pyrimidin-2-yl]amino}benzyl)phosphonate], the IC50 at FAK [1] was 1000 to 10000 nM; at FAK [2] it was under 1000 nM.

On to `CCOP(=O)(Cc1ccc(Nc2ncc(C(F)(F)F)c(Nc3ccc([C@H]4CC[C@@H](O)CC4)cc3C(=O)NC)n2)cc1)OCC` [Example 138, Diethyl (4-{[4-{[4-(cis-4-hydroxycyclohexyl)-2-(methylcarbamoyl)phenyl]amino}-5-(trifluoromethyl)pyrimidin-2-yl]amino}benzyl)phosphonate], for which the IC50 at FAK [1] and against FAK [2] was under 1000 nM each time.

`CCOP(=O)(Cc1ccc(Nc2ncc(C(F)(F)F)c(Nc3ccc([C@H]4CC[C@@H](O)CC4)cc3C(=O)NC)n2)c(OC)c1)OCC` [Example 140, Diethyl (4-{[4-{[4-(cis-4-hydroxycyclohexyl)-2-(methylcarbamoyl)phenyl]amino}-5-(trifluoromethyl)pyrimidin-2-yl]amino}-3-methoxybenzyl)phosphonate]: the IC50 on FAK [1] and against FAK [2] was under 1000 nM in each case.

Regarding `CCOP(=O)(Cc1ccc(Nc2ncc(C(F)(F)F)c(Nc3ccc(-c4ccn(CCO)n4)c4c3C(=O)N(C)C4)n2)cc1)OCC` [Example 142, Diethyl (4-{[4-({7-[1-(2-hydroxyethyl)-1H-pyrazol-3-yl]-2-methyl-3-oxo-2,3-dihydro-1H-isoindol-4-yl}amino)-5-(trifluoromethyl)pyrimidin-2-yl]amino}benzyl)phosphonate], the IC50 at FAK [1] and against FAK [2] was under 1000 nM each time.

In the case of `CCOP(=O)(O)Cc1ccc(Nc2ncc(C(F)(F)F)c(Nc3ccccc3C(=O)NC)n2)c(OC)c1` [Example 143, Ethyl hydrogen (3-methoxy-4-{[4-{[2-(methylcarbamoyl)phenyl]amino}-5-(trifluoromethyl)pyrimidin-2-yl]amino}benzyl)phosphonate], the IC50 at FAK [1] and against FAK [2] was under 1000 nM throughout.

Regarding `CCOP(=O)(Cc1ccc(Nc2ncc(C(F)(F)F)c(Nc3cccc4c3C(=O)N(C)C4(C)C)n2)c(OC)c1)OCC` [Example 148, Diethyl [3-methoxy-4-({5-(trifluoromethyl)-4-[(1,1,2-trimethyl-3-oxo-2,3-dihydro-1H-isoindol-4-yl)amino]pyrimidin-2-yl}amino)benzyl]phosphonate], the IC50 on FAK [1] is 1000 to 10000 nM; against FAK [2], under 1000 nM.

Turning to `CCOP(=O)(Cc1ccc(Nc2ncc(C(F)(F)F)c(Nc3cccc4c3C(=O)N(C)C4(C)C)n2)cc1)OCC` [Example 149, Diethyl [4-({5-(trifluoromethyl)-4-[(1,1,2-trimethyl-3-oxo-2,3-dihydro-1H-isoindol-4-yl)amino]pyrimidin-2-yl}amino)benzyl]phosphonate], the IC50 on FAK [1] is 1000 to 10000 nM; against FAK [2], under 1000 nM.

Consider `CCOP(=O)(Cc1ccc(Nc2ncc(C(F)(F)F)c(Nc3ccc(C#N)cc3C(=O)NC)n2)c(OC)c1)OCC` [Example 151, Diethyl (4-{[4-{[4-cyano-2-(methylcarbamoyl)phenyl]amino}-5-(trifluoromethyl)pyrimidin-2-yl]amino}-3-methoxybenzyl)phosphonate], for which the IC50 on FAK [1] and on FAK [2] was under 1000 nM in each case.

In the case of `CCOP(=O)(Cc1ccc(Nc2ncc(C(F)(F)F)c(Nc3ccc(-c4cnn([C@H]5CC[C@H](O)CC5)c4)c4c3C(=O)N(C)C4)n2)cc1)OCC` [Example 164, Diethyl (4-{[4-({7-[1-(trans-4-hydroxycyclohexyl)-1H-pyrazol-4-yl]-2-methyl-3-oxo-2,3-dihydro-1H-isoindol-4-yl}amino)-5-(trifluoromethyl)pyrimidin-2-yl]amino}benzyl) phosphonate], the IC50 on FAK [1] and at FAK [2] was under 1000 nM each time.
